Measurements from patent US20220235011A1, “PHTHALAZINONE COMPOUNDS AND USE THEREOF” (ST PHARM CO., LTD., priority 2019, published 2022).

Target: T1, Sirt6 (Homo sapiens, UniProt Q8N6T7)
T1 construct: purchased CycLex CY-1156V2
Experiment: Measurement of Sirt6 Activity (CycLex Sirt6 Deacetylase Fluorometric Assay Kit)
Type: biochemical
Details: compound at 10 μM; fluorescence relative to the group without compound treatment (positive control group)
Procedure: LC-MS (ESI, m/z)=430.1 (M+H^+) Experimental Example 1: Measurement of Sirt6 Activity Compounds having Sirt6 activity were selected using a CycLex Sirt6 Deacetylase Fluorometric Assay Kit (cat. CY-1156V2) manufactured by CycLex.
When a fluorescent-attached acetylated lysine substrate is treated with Sirt6 enzyme, Sirt6 deacetylates the acetylated lysine of the substrate and lysylendopeptidase cleaves the C-terminal peptide bond connected to the lysine, by which fluorescence is emitted. The activity of a compound is calculated by observing the intensity of fluorescence when the compound is treated along with Sirt6 enzyme. When treating the compound, the compound aids in the activity of Sirt6 enzyme, so as to result in stronger fluorescence. Therefore, by calculating the ratio of the stronger fluorescence relative to the fluorescence emitted from the group without compound treatment (i.e., positive control group), relative activity can be calculated.
Activity evaluation was performed according to the following procedure.
The compound whose activity is to be evaluated was prepared by diluting in phosphate-buffered saline (PBS) to 10 times of the desired concentration (e.g., when measuring Sirt6 assay activity at 10 μM, the compound is prepared at a concentration of 100 μM in PBS). 1 μL of a 1 Ox Sirt6 assay buffer, 0.8 μL of 50× fluoro-substrate peptide, 1 μL of nicotinamide adenine dinucleotide (NAD), 1 μL of a developer and 4.2 μL of H2O were mixed to prepare mixtures equal to the number of samples, and 8 μL was dispensed into each Black 384 well. An additional 1 μL of PBS was added to each of a “no enzyme group” and a positive control group, and 1 μL of the compound diluted in PBS was added to an activity evaluation group. Recombinant Sirt6 was 1:8 diluted in a 1×Sirt6 assay buffer, and 1 μL thereof was added to each of the positive control group and the activity evaluation group. 1 μL of the 1×Sirt6 assay buffer was added to the “no enzyme group.” After reacting at room temperature for one hour, results were measured with a fluorescence spectrometer (excitation: 490±10 nm, emission: 530±10 nm) to confirm the presence or absence of Sirt6 activity and measure the intensity of the activity.

T1 sequence (Q8N6T7 whole entry): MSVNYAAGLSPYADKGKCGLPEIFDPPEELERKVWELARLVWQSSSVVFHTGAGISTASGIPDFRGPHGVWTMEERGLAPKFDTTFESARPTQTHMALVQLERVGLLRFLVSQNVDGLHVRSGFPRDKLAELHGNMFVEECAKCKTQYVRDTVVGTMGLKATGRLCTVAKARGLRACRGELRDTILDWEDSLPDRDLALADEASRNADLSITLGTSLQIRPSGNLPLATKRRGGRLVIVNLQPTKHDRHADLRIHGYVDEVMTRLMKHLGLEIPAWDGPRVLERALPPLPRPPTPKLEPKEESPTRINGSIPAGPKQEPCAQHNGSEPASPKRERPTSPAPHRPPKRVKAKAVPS

Row | Compound | Sirt6 Activity (% activity, 10 μM)
1 | CCS(=O)(=O)Nc1cccc(-c2nn(-c3ccccc3)c(=O)c3ccccc23)c1 [Example 1, N-(3-(4-Oxo-3-phenyl-3,4-dihydrophthalazin-1-yl)phenyl)ethanesulfonamide] | 170 % activity
2 | Nc1cccc(-c2nn(-c3ccc(C(F)(F)F)cc3)c(=O)c3ccccc23)c1 [Example 2, 4-(3-Aminophenyl)-2-(4-(trifluoromethyl)phenyl)phthalazin-1(2H)-one] | 88 % activity
3 | CCS(=O)(=O)Nc1cccc(-c2nn(-c3ccc(C(F)(F)F)cc3)c(=O)c3ccccc23)c1 [Example 3, N-(3-(4-Oxo-3-(4-(trifluoromethyl)phenyl)-3,4-dihydrophthalazin-1-yl)phenyl)ethanesulfonamide] | 104 % activity
4 | CCNc1cccc(-c2nn(-c3ccc(C(F)(F)F)cc3)c(=O)c3ccccc23)c1 [Example 4, 4-(3-(Ethylamino)phenyl)-2-(4-(trifluoro-methyl)phenyl)phthalazin-1(2H)-one] | 102 % activity
5 | CCS(=O)(=O)N(C)c1cccc(-c2nn(-c3ccc(C(F)(F)F)cc3)c(=O)c3ccccc23)c1 [Example 5, N-Methyl-N-(3-(4-oxo-3-(4-(trifluoromethyl)phenyl)-3,4-dihydrophthalazin-1-yl)phenyl)ethanesulfonamide] | 105 % activity
6 | CS(=O)(=O)Nc1cccc(-c2nn(-c3ccccc3)c(=O)c3ccccc23)c1 [Example 6, N-(3-(4-Oxo-3-phenyl-3,4-dihydrophthalazin-1-yl)phenyl)methanesulfonamide] | 102 % activity
7 | CN(c1cccc(-c2nn(-c3ccccc3)c(=O)c3ccccc23)c1)S(C)(=O)=O [Example 7, N-Methyl-N-(3-(4-oxo-3-phenyl-3,4-dihydro-phthalazin-1-yl)phenyl)methanesulfonamide] | 173 % activity
8 | CCS(=O)(=O)Nc1ccc(-c2nn(-c3ccccc3)c(=O)c3ccccc23)cc1 [Example 8, N-(4-(4-Oxo-3-phenyl-3,4-dihydrophthalazin-1-yl)phenyl)ethanesulfonamide] | 100 % activity
9 | CN(C)S(=O)(=O)Nc1cccc(-c2nn(-c3ccccc3)c(=O)c3ccccc23)c1 [Example 9] | 154 % activity
10 | CS(=O)(=O)Nc1cccc(-c2nn(-c3ccc(F)cc3)c(=O)c3ccccc23)c1 [Example 10, N-(3-(3-(4-Fluorophenyl)-4-oxo-3,4-dihydrophthalazin-1-yl)phenyl)methanesulfonamide] | 198 % activity
11 | CCS(=O)(=O)Nc1cccc(-c2nn(-c3ccc(F)cc3)c(=O)c3ccccc23)c1 [Example 11, N-(3-(3-(4-Fluorophenyl)-4-oxo-3,4-dihydrophthalazin-1-yl)phenyl)ethanesulfonamide] | 162 % activity
12 | CN(C)S(=O)(=O)Nc1cccc(-c2nn(-c3ccc(F)cc3)c(=O)c3ccccc23)c1 [Example 12, N-(3-(3-(4-Fluorophenyl)-4-oxo-3,4-dihydrophthalazin-1-yl)phenyl)dimethylsulfamoylamide] | 189 % activity
13 | C/[N+]([O-])=C/c1cccc(-c2nn(-c3ccccc3)c(=O)c3ccccc23)c1 [Example 13, (Z)—N-Methyl-1-(3-(4-oxo-3-phenyl-3,4-dihydrophthalazin-1-yl)phenyl)methanimine Oxide] | 181 % activity
14 | CC(C)/[N+]([O-])=C/c1cccc(-c2nn(-c3ccccc3)c(=O)c3ccccc23)c1 [Example 14, (Z)—N-Isopropyl-1-(3-(4-oxo-3-phenyl-3,4-dihydrophthalazin-1-yl)phenyl)methanimine Oxide] | 121 % activity
15 | C/[N+]([O-])=C/c1cccc(-c2nn(-c3ccc(F)cc3)c(=O)c3ccccc23)c1 [Example 15, (Z)-1-(3-(3-(4-Fluorophenyl)-4-oxo-3,4-dihydrophthalazin-1-yl)phenyl)-N-methylmethanimine Oxide] | 231 % activity
